Experimental data taken from patent US8093273B2, “Flavanoids and isoflavanoids for the prevention and treatment of cardiovascular diseases” (Resverlogix Corp., priority 2004, dated 2012).
≈ marks a conversion by molar mass, not a printed value.

Tests used:
human ApoA-I promoter [1] = assay: ApoA-I promoter induction in HepG2 liver cells (pAI.474-Luc luciferase reporter); format: cell-based; conditions: average values at 15 μM, 48 hours incubation
Method: This study determined whether compounds of the invention have an effect on ApoA-I promoter activity expression in HepG2 cells, a liver cell line. Cells were grown under conditions recommended by the ATCC and summarized by Wong.
The promoter region of the gene encoding human ApoA-I was isolated and ligated upstream the structure gene of firefly luciferase to construct a reporter plasmid (pAI.474-Luc). The reporter plasmid, along with pRSV-β-galactosidase (as a control for transfection efficiency), were co-transfected into HepG2 cells. The cells were then incubated in an MEM selection media containing 20% fetal calf serum supplemented with G418 (final concentration: 0.5 mg/mL, Gibco) to give established strains that stably express from the reporter gene. The strains were seeded to a 6-well culture plates and incubated for 48 hours at 37° C. under 5% carbon dioxide. Cells were starved for 24 hrs in MEM selection media containing 0.5% FBS. Then, a solution of the compounds of the invention in DMSO (or other appropriate solvent) was added to the wells at a final concentration of 0 to 100 μM in MEM selection media containing 0.5% FBS.
(§1) After further incubation for 48 hours, the cells were harvested and lysed using Reporter Lysis Buffer (PROMEGA E3971), and 50 μL of luciferase assay reagent (PROMEGA E4550 Luciferase Reporter 1000 assay system) were added to measure luciferase activity with a luminometer (Fluoroskan Ascent FL from Thermo electron Corporation). Luciferase activity was normalized to lysate protein concentrations, measured using Bradford Reagent (Biorad Protein Assay reagent Cat #500-0006).

human ApoA-I promoter [2] = assay: ApoA-I promoter induction in Caco-2 intestinal cells (pAI.474-Luc luciferase reporter); format: cell-based; conditions: Caco-2 cells, 15 μM, 48 hours incubation, luciferase activity vs control samples
Method: To examine the effects of compounds of the invention to increase ApoA-I expression, Caco-2 cells, an intestinal cell line derived from human epithelial intestinal cells, were grown under conditions recommended by the ATCC and summarized in United States Patent Application Publication No. 20040033480 (“Wong”), incorporated herein by reference.
Briefly, the promoter region of the gene encoding human ApoA-I was isolated and ligated upstream of the firefly luciferase gene to construct the reporter plasmid pAI.474-Luc. This reporter plasmid and pRSV-β-galactosidase (as a control for transfection efficiency) were co-transfected to Caco-2 cells. The Caco-2 cells were then incubated in a MEM selection media containing 20% fetal calf serum supplemented with G418 (final concentration: 0.5 mg/mL, Gibco) to give established strains that stably express from the reporter gene. The strains were seeded in 6-well culture plates and incubated for 48 hours at 37° C. under 5% carbon dioxide. Cells were starved for 24 hrs in MEM selection media containing 0.5% FBS. Then, a solution of a compound of the invention in DMSO or other appropriate solvent was added to the wells at a final concentration of 0 to 100 μM in MEM selection media containing 0.5% FBS.
as §1, with “system) was” for “system) were”, “Reagent (BioRad” for “Reagent (Biorad”, “#500-0006). The luciferase activity of cells treated with various concentrations of test compounds was compared to that of solvent control sample (i.e., solvent without any compound of the present invention added) and untreated control sample.” for “#500-0006).”

Caco-2 permeability = format: in vitro ADME, human; conditions: human, Caco-2
Description: The Caco-2 cell drug transport model is widely used for screening compounds in drug discovery to assess intestinal transport and predict absorption rates.

[3] = Solubility analysis in PBS (HPLC-UV); format: physicochemical; conditions: aqueous buffer, thermodynamic from solid; 1 mg in 1 mL PBS, sonicated 1 hour, 25° C. for 3 hrs
Method: Samples were then centrifuged at 14,000 rpm for 6 minutes at room temperature. The supernatant was diluted with acetonitrile and was removed for analysis. Analysis was performed using HPLC-UV with 7-point standard curve to determine the concentration. The average concentration calculated is regarded as the solubility (μM).

hApoA-I transgenic mice = assay: hApoA-I transgenic mice, oral gavage for 14 days; format: in vivo; conditions: for change in vivo at 10 mg/kg: Mus musculus, po, 336 h, Table 6 third group, 10 mg/kg BID 14 days, relative to pretreatment, Control 3 (F-101) (6.32), read-out: ApoA-I (% change)
Description: To test whether the efficacy of compounds of the invention observed in vitro extended to an in vivo model, transgenic mice carrying multiple copies of the human ApoA-I gene (C57BI/6-tgn(apoa1)1 rub, Jackson Laboratory, Bar Harbor, Me.) were exposed to representative compounds of the invention. The exogenous human ApoA-I gene in these mice enables them to express the human ApoA-I protein under the control of this promoter.
Seven to eight week old male mice, transgenic for human ApoA-I were housed five per cage (10″×20″×8″ with aspen chip bedding) with pelleted Rodent chow [Purina 5001] and water available at all times. After an acclimation period of 1 week, animals were individually identified by numbering on tail and weighed. Mice were pre bled via the retro-orbital plexus, and 150 μl of blood was collected in 1.5 ml Eppendorf tube containing 1 μl of heparin and chilled on ice. Plasma was collected after centrifuging the whole blood at 14000 rpm [TOMY high speed micro-refrigerated centrifuge NTX-150] for 10 minutes at 4° C. and frozen at −80° C. Plasma was analyzed for: human ApoA-I by a human ApoA-I enzyme-linked Immunoassay [Direct Sandwich ELISA Calbiochem Cat#178422, Calbiochem Cat#178452, lot #B9076, Calbiochem Cat #178470 conjugated to Horse Radish Peroxidase (Cedarlane Cat#80220)]; total cholesterol [Ponte scientific reagents: # C7509-STD, #L7580-18, # C7510]; and triglyceride [Pointe Scientific Reagents: # 7532-STD, # L7580-18, #7532]. All samples were measured in triplicates and expressed as mg/dl. Mice were grouped based on the above plasma parameters and having an average body weight of 25 gm.
Two days following pre-bleed, mice were dosed by oral gavage daily for 14 days using a 20 gauge, 11/2″ curved disposable feeding needle [Popper & Sons]; when BID, mice were gavaged morning and afternoon (8 am and 5 pm); when SID mice were gavaged in morning (8 am). Compounds were prepared each day in vehicle. Test article(s), a positive control fenofibrate, and vehicle were dosed at volume of 5 mL/kg of body weight as a suspension (0.1 mL/20 g mouse). Fenofibrate was obtained commercially [SIGMA #F 6020]. Mice weights were recorded on day 1, 4, 7, 10, 12, and 15. On day 15, mice were weighed and fasted for 4 hours, sacrificed by inhalation of CO2 and blood was obtained via cardiac puncture (0.7-1.0 ml). Plasma was collected and frozen at −80° C. Samples were assayed for ApoA-I, total cholesterol, triglyceride and HDL-C by HPLC [Polaris 200 with an auto sampler Prostar 410 from Varian on a Superose 6 10/30 column from Amersham]. Samples were sent for NMR analysis [LipoScience] to identify particle size and subclass for lipoproteins. During necropsy, liver, brown fat, and the whole of small and large intestines were collected, cleaned with cold PBS and frozen at −80° C. for further analysis of compound levels. Variation between studies, in ApoA-I changes, was observed. Therefore, a relative comparison between individual(s) in the study groups was used.
4′-hydroxyflavone (10 mg/kg of body weight), 4-(4-oxo-4H-chromen-2-yl)phenyl nicotinate (Example 71) (10 mg/kg of body weight) and fenofibrate (100 mg/kg of body weight) were BID administered to hApoA-I transgenic mice daily for fourteen days by oral gavage in 0.5% Methylcellulose (w/v)/1% Tween 80 (w/v). Plasma was assayed for ApoA-I (FIG. 3A), HDL cholesterol and total cholesterol (FIG. 3B) and percent weight gain (FIG. 3C).
4′-hydroxyflavone (3 mg/kg of body weight), 4′-hydroxyflavone (10 mg/kg of body weight), 4′-hydroxyflavone (30 mg/kg of body weight), 2-(4-Hydroxy-phenyl)-pyrano[2,3-b]pyridin-4-one (10 mg/kg of body weight), and fenofibrate (100 mg/kg of body weight) were BID administered to hApoA-I transgenic mice daily for fourteen days by oral gavage in 0.5% methylcellulose (w/v)/1% Tween 80 (w/v). In this experiment plasma was assayed for ApoA-I. […]

SMILES | ApoA-I Promoter Induction (human ApoA-I promoter [1]) | ApoA-I Promoter Induction (human ApoA-I promoter [2]) | Papp (Caco-2 permeability) [×10⁻⁶ cm/s] | melting point [°C] | also measured
O=c1c(O)c(-c2ccc(O)c(O)c2)oc2cc(O)cc(O)c12 [3,5,7-trihydroxy-2-(3,4-dihydroxyphenyl)-4H-chromen-4-one, reference compound] | increased | – | – | – | –
O=c1cc(-c2ccc(O)cc2)oc2cccc(O)c12 [4′,5-dihydroxyflavone] | increased | – | – | – | –
O=C1CC(c2ccc(O)cc2)Oc2cc(O)cc(O)c21 (centres unmarked) [5,7-Dihydroxy-2-(4-hydroxyphenyl)-chroman-4-one] | increased | increased | – | – | –
Nc1cc(O)ccc1-c1cc(=O)c2ccccc2o1 [Example 3, 2-(2-amino-4-hydroxy-phenyl)-chromen-4-one] | increased | – | 7.42 | – | –
Cc1cc(-c2cc(=O)c3ccccc3o2)cc(C)c1O [Example 7, 2-(4-hydroxy-3,5-dimethylphenyl)chromen-4-one] | – | increased | 0.695 | 255 to 256 | –
O=c1cc(-c2ccc(O)cc2)oc2ccc(CO)cc12 [Example 11, 6-Hydroxymethyl-2-(4-hydroxyphenyl)chromen-4-one] | increased | – | – | 246 to 247 | –
O=c1cc(-c2ccc(O)c(F)c2)oc2ccccc12 [Example 12, 2-(3-Fluoro-4-hydroxyphenyl)chromen-4-one] | increased | – | – | 275 to 276 | –
O=c1cc(-c2ccc(CO)cc2)oc2ccc(O)cc12 [Example 14, 6-Hydroxy-2-(4-hydroxymethylphenyl)chromen-4-one] | increased | – | – | 262 to 265 | –
O=c1cc(-c2ccc(O)c(F)c2)oc2ccc(CO)cc12 [Example 33, 2-(3-fluoro-4-hydroxyphenyl)-6-(hydroxymethyl)-4H-chromen-4-one] | – | increased | – | 256 to 258 | solubility at 3 h [3]: 51.4 µM (≈ 14.7 µg/mL)
Cc1cc(-c2cc(=O)c3cccnc3o2)ccc1O [Example 38, 2-(4-hydroxy-3-methylphenyl)-4H-pyrano[2,3-b]pyridine-4-one] | – | increased | 0.596 | 300 to 302 | –
O=c1cc(-c2ccc(O)cn2)oc2ccccc12 [Example 46, 2-(5-hydroxy-pyridin-2-yl)-chromen-4-one] | – | increased | 1.23 | – | change in vivo at 10 mg/kg (hApoA-I transgenic mice): 5.62%
O=c1cc(-c2ccncc2)oc2ccccc12 [Example 47, 2-pyridin-4-yl-chromen-4-one] | – | increased | 6.48 | – | change in vivo at 10 mg/kg (hApoA-I transgenic mice): 22.7%
Oc1ccc(-c2cc3ccccc3cn2)cc1 [Example 54, 4-isoquinolin-3-yl-phenol] | increased | increased | 4.11 | 218 to 219 | –
O=C(Oc1ccc(-c2cc(=O)c3ccccc3o2)cc1)c1cccnc1 [Example 71, 4-(4-oxo-4H-chromen-2-yl)phenyl nicotinate] | increased | increased | – | – | plasma ApoA-I, net % change over vehicle (hApoA-I transgenic mice; Experiment A, 10 mg/kg BID oral gavage, 14 days, 0.5% methylcellulose/1% Tween 80): 12.82%; liver weight gain normalized to body weight, compared to vehicle (hApoA-I transgenic mice; Experiment A, 10 mg/kg BID, day 15, male mice): minor changes
O=C(Oc1ccc(C2CC(=O)c3c(OC(=O)c4cccnc4)cc(OC(=O)c4cccnc4)cc3O2)cc1)c1cccnc1 (centres unmarked) [Example 73, 2-(4-(Nicotinoyloxy)phenyl)-4-oxochroman-5,7-diyl dinicotinate] | no increase | – | – | – | –
O=C(Oc1ccc(-c2cc(=O)c3c(OC(=O)c4cccnc4)cc(OC(=O)c4cccnc4)cc3o2)cc1)c1cccnc1 [Example 74, 2-(4-Nicotinoyloxy)phenyl)-oxo-4H-chromene-5,7-diyl dinicotinate] | increased | increased | – | – | –
